Assay results reported in PubChem BioAssay AID504505 (The Scripps Research Institute Molecular Screening Center, 2011).

Test system: Abhydrolase domain-containing protein 11 (ABHD11), mouse
Experiment: ABHD11 inhibition in mouse cells, late-stage follow-up, selectivity assay for LYPLA1 inhibitor project, cell-based, gel-based fluorescent ABPP (AID 504505)
Settings: ABHD11 labeling, at 0.03 µM, stronger effect = higher value

Q: For `CCC1CCCCN1C(=O)n1ncc(C(O)(c2ccccc2)c2ccccc2)n1` (stereo unspecified), which inhibition is on record?
A: 100%
